{
  "source": "patent US4357326A",
  "about": "“Multi-glucopyranosyl-fructofuranosyl-galactopyranosyl-glucopyranoside sulfate salts and methods of use” (American Cyanamid Company, priority 1981, dated 1982)",
  "key": {"[1]": {"system": "late components of human complement (C3-C9)", "test": "Test Code 035 (C3-C9 inhibitor), lysis of EAC 142", "type": "biochemical", "conditions": "in vitro; serial twofold dilution assay, higher well number indicates higher activity", "from_the_text": "(§1) An active inhibitor protects C2 from C1 and C4; (ii) Test Code 035 (C3-C9 inhibitor)--This test determines the ability of the late components of human complement (C3-C9) to lyse EAC 142 in the presence of appropriate dilutions of the test compound. An active inhibitor protects EAC 142 from lysis by human C3-C9; (iii) Test Code 036 (C-Shunt inhibitor)--In this test human erythrocytes rendered fragile are lysed in autologous serum via the shunt pathway activated by cobra venom factor in the presence of appropriate dilutions of the test compound. Inhibition of the shunt pathway results in failure of lysis; (iv) Cap 50 Test--Here, appropriate amounts of the test compound are added to a pool of guinea pig serum in vitro, after which the complement level is determined in undiluted serum by the serum capillary tube assay of U.S. Pat. No. 3,876,376. The concentration of compound inhibiting 50% is reported; and (v) Guinea Pig Intraperitoneal Test (GPIP)--Guinea pigs weighing about 300 g are dosed intraperitoneally (i.p.) with 200 mg/kg of the test compound dissolved in saline and adjusted to pH 7-8. Approximately 0.4 ml blood samples, taken by orbital sinus puncture 30 minutes and one hour after injections, are collected directly into centrifuge tubes; 5 ml blood samples, taken by decapitation 2 hours after injection are collected directly into disPo® beakers. The samples were allowed to clot, centrifuged, and the resultant sera were assayed for complement activity using the capillary complement assay referred to above. Percent inhibition is calculated by comparison with simultaneous controls. The results of the GPIP appear in Table I together with results of Test Code 026, 035, 036 and Cap 50."}, "[2]": {"system": "shunt pathway activated by cobra venom factor", "test": "Test Code 036 (C-Shunt inhibitor), lysis of fragile human erythrocytes in autologous serum", "type": "cell-based", "conditions": "in vitro; serial twofold dilution assay, higher well number indicates higher activity", "from_the_text": "as §1"}, "activated human C1": {"target": "activated human C1 (Homo sapiens, UniProt P09871)", "test": "Test Code 026 (C1 inhibitor)", "type": "biochemical", "conditions": "in vitro; serial twofold dilution assay, higher well number indicates higher activity", "from_the_text": "as §1"}, "[3]": {"system": "total hemolytic complement activity of human serum", "conditions": "in vitro and in vivo, judged by reduction in total hemolytic complement activity; cited from earlier work"}, "[4]": {"system": "complement activity of sera", "test": "Guinea Pig Intraperitoneal Test (GPIP)", "type": "in vivo", "conditions": "200 mg/kg i.p.", "from_the_text": "as §1"}},
  "note": "Counter-ions that a name gives are not always drawn.",
  "data": [
    {"compound": "O=S(=O)(O)OC[C@H]1O[C@H](OC[C@H]2O[C@H](O[C@]3(COS(=O)(=O)O)O[C@H](CO[C@@H]4O[C@H](COS(=O)(=O)O)[C@@H](O[C@H]5O[C@H](COS(=O)(=O)O)[C@@H](O[C@H]6O[C@H](COS(=O)(=O)O)[C@@H](O[C@H]7O[C@H](COS(=O)(=O)O)[C@@H](O[C@H]8O[C@H](COS(=O)(=O)O)[C@@H](O[C@H]9O[C@H](COS(=O)(=O)O)[C@@H](O[C@H]%10O[C@H](COS(=O)(=O)O)[C@@H](OS(=O)(=O)O)[C@H](OS(=O)(=O)O)[C@H]%10OS(=O)(=O)O)[C@H](OS(=O)(=O)O)[C@H]9OS(=O)(=O)O)[C@H](OS(=O)(=O)O)[C@H]8OS(=O)(=O)O)[C@H](OS(=O)(=O)O)[C@H]7OS(=O)(=O)O)[C@H](OS(=O)(=O)O)[C@H]6OS(=O)(=O)O)[C@H](OS(=O)(=O)O)[C@H]5OS(=O)(=O)O)[C@H](OS(=O)(=O)O)[C@H]4OS(=O)(=O)O)[C@@H](OS(=O)(=O)O)[C@@H]3OS(=O)(=O)O)[C@H](OS(=O)(=O)O)[C@@H](OS(=O)(=O)O)[C@@H]2OS(=O)(=O)O)[C@H](OS(=O)(=O)O)[C@@H](OS(=O)(=O)O)[C@H]1OS(=O)(=O)O", "note": "[drawing 25, O-α-D-Glucopyranosyl(1→4)-[O-α-D-glucopyranosyl(1→4)]5 -O-β-D-glucopyranosyl(1→6)-β-D-fructofuranosyl-O-α-D-galactopyranosyl(1→6)-α-D-glucopyranoside dotriacontakis(H-sulfate), dotriacontasalt with trimethylamine]", "values": [
      {"measurement": "C-Late 035 Wells", "setting": "[1]", "result": 1, "unit": "Wells"},
      {"measurement": "C-Shunt Inhibition 036 Wells", "setting": "[2]", "result": 4, "unit": "Wells"},
      {"measurement": "C1 026 Wells", "setting": "activated human C1", "result": 9, "unit": "Wells"}
    ]},
    {"compound": "pentosanpolysulfoester", "values": [
      {"measurement": "anticomplementary activity on human serum", "setting": "[3]", "result": "has an anticomplementary activity on human serum, both in vitro and in vivo"}
    ]},
    {"compound": "O=S(=O)(O)OC[C@H]1O[C@H](OC[C@H]2O[C@H](O[C@]3(COS(=O)(=O)O)O[C@H](CO[C@@H]4O[C@H](COS(=O)(=O)O)[C@@H](O[C@H]5O[C@H](COS(=O)(=O)O)[C@@H](O[C@H]6O[C@H](COS(=O)(=O)O)[C@@H](O[C@H]7O[C@H](COS(=O)(=O)O)[C@@H](O[C@H]8O[C@H](COS(=O)(=O)O)[C@@H](O[C@H]9O[C@H](COS(=O)(=O)O)[C@@H](O[C@H]%10O[C@H](COS(=O)(=O)O)[C@@H](OS(=O)(=O)O)[C@H](OS(=O)(=O)O)[C@H]%10OS(=O)(=O)O)[C@H](OS(=O)(=O)O)[C@H]9OS(=O)(=O)O)[C@H](OS(=O)(=O)O)[C@H]8OS(=O)(=O)O)[C@H](OS(=O)(=O)O)[C@H]7OS(=O)(=O)O)[C@H](OS(=O)(=O)O)[C@H]6OS(=O)(=O)O)[C@H](OS(=O)(=O)O)[C@H]5OS(=O)(=O)O)[C@H](OS(=O)(=O)O)[C@H]4OS(=O)(=O)O)[C@@H](OS(=O)(=O)O)[C@@H]3OS(=O)(=O)O)[C@H](OS(=O)(=O)O)[C@@H](OS(=O)(=O)O)[C@@H]2OS(=O)(=O)O)[C@H](OS(=O)(=O)O)[C@@H](OS(=O)(=O)O)[C@H]1OS(=O)(=O)O", "note": "[drawing 26, O-α-D-Glucopyranosyl(1→4)-[O-α-D-glucopyranosyl(1→4)]5 -O-β-D-glucopyranosyl(1→6)-β-D-fructofuranosyl-O-α-D-galactopyranosyl(1→6)-α-D-glucopyranoside dotriacontakis(H-sulfate), dotriacontasodium salt]", "values": [
      {"measurement": "C-Late 035 Wells", "setting": "[1]", "result": 3, "unit": "Wells"},
      {"measurement": "C-Shunt Inhibition 036 Wells", "setting": "[2]", "result": 5, "unit": "Wells"},
      {"measurement": "C1 026 Wells", "setting": "activated human C1", "result": 9, "unit": "Wells"}
    ]},
    {"compound": "O=S(=O)(O)OC[C@H]1O[C@H](OC[C@H]2O[C@H](O[C@]3(COS(=O)(=O)O)O[C@H](CO[C@@H]4O[C@H](COS(=O)(=O)O)[C@@H](O[C@H]5O[C@H](COS(=O)(=O)O)[C@@H](O[C@H]6O[C@H](COS(=O)(=O)O)[C@@H](OS(=O)(=O)O)[C@H](OS(=O)(=O)O)[C@H]6OS(=O)(=O)O)[C@H](OS(=O)(=O)O)[C@H]5OS(=O)(=O)O)[C@H](OS(=O)(=O)O)[C@H]4OS(=O)(=O)O)[C@@H](OS(=O)(=O)O)[C@@H]3OS(=O)(=O)O)[C@H](OS(=O)(=O)O)[C@@H](OS(=O)(=O)O)[C@@H]2OS(=O)(=O)O)[C@H](OS(=O)(=O)O)[C@@H](OS(=O)(=O)O)[C@H]1OS(=O)(=O)O", "note": "[drawing 24, O-α-D-Glucopyranosyl(1→4)-O-α-D-glucopyranosyl(1→4)-O-β-D-glucopyranosyl(1→6)-β-D-fructofuranosyl-O-α-D-galactopyranosyl(1→6)-α-D-glucopyranoside eicosakis(H-sulfate), eicosasodium salt]", "values": [
      {"measurement": "C-Late 035 Wells", "setting": "[1]", "result": 1, "unit": "Wells"},
      {"measurement": "In vivo Activity (Guinea pigs) % Inhibition Intraperitoneal, 30 minutes", "setting": "[4]; blood sample 30 minutes after injection", "result": 49, "unit": "%"},
      {"measurement": "In vivo Activity (Guinea pigs) % Inhibition Intraperitoneal, 60 minutes", "setting": "[4]; blood sample 60 minutes after injection", "result": 67, "unit": "%"},
      {"measurement": "In vivo Activity (Guinea pigs) % Inhibition Intraperitoneal, 120 minutes", "setting": "[4]; blood sample 120 minutes after injection", "result": 78, "unit": "%"},
      {"measurement": "C-Shunt Inhibition 036 Wells", "setting": "[2]", "result": 6, "unit": "Wells"},
      {"measurement": "C1 026 Wells", "setting": "activated human C1", "result": 9, "unit": "Wells"}
    ]},
    {"compound": "O=S(=O)(O)OC[C@H]1O[C@H](OC[C@H]2O[C@H](O[C@]3(COS(=O)(=O)O)O[C@H](CO[C@@H]4O[C@H](COS(=O)(=O)O)[C@@H](O[C@H]5O[C@H](COS(=O)(=O)O)[C@@H](O[C@H]6O[C@H](COS(=O)(=O)O)[C@@H](OS(=O)(=O)O)[C@H](OS(=O)(=O)O)[C@H]6OS(=O)(=O)O)[C@H](OS(=O)(=O)O)[C@H]5OS(=O)(=O)O)[C@H](OS(=O)(=O)O)[C@H]4OS(=O)(=O)O)[C@@H](OS(=O)(=O)O)[C@@H]3OS(=O)(=O)O)[C@H](OS(=O)(=O)O)[C@@H](OS(=O)(=O)O)[C@@H]2OS(=O)(=O)O)[C@H](OS(=O)(=O)O)[C@@H](OS(=O)(=O)O)[C@H]1OS(=O)(=O)O", "note": "[drawing 23, O-α-D-Glucopyranosyl(1→4)-O-α-D-glucopyranosyl(1→4)-O-β-D-glucopyranosyl(1→6)-β-D-fructofuranosyl-O-α-D-galactopyranosyl(1→6)-α-D-glucopyranoside eicosakis(H-sulfate) eicosasalt with trimethylamine]", "values": [
      {"measurement": "C-Late 035 Wells", "setting": "[1]", "result": 2, "unit": "Wells"},
      {"measurement": "C-Shunt Inhibition 036 Wells", "setting": "[2]", "result": 5, "unit": "Wells"},
      {"measurement": "C1 026 Wells", "setting": "activated human C1", "result": 9, "unit": "Wells"}
    ]}
  ]
}
